Columns and labels:
[1] = system: Hedgehog signaling; details: 50 mg/kg/d i.p.
Text: Sixty nude mice undergo intrasplenic injection of NE tumor cells as described above. […] Treatment continues for 8 weeks.
2) Interval assessment of tumor burden. All animals undergo microCT scanning every week for 8 weeks as described above. Blood is sampled weekly for measurement of serotonin or calcitonin levels.
3) Measurement of Hedgehog signaling inhibition. […] The liver lesions from animals sacrificed at 2 weeks intervals (n=3 per group) are microdissected from normal liver and total RNA extracted. Tumors in cycloamine treated mice are analyzed for downregulation of Gli1 expression by real-time PCR when compared to control animals.

[2] = system: Hedgehog pathway; details: murine models; cited from earlier work

## CC1=C2C[C@H]3[C@@H](CC=C4C[C@@H](O)CC[C@@]43C)[C@@H]2CC[C@]12O[C@@H]1C[C@H](C)CN[C@H]1[C@H]2C [Cyclopamine]
[1]
  Hedgehog signaling within the NE tumor cells: confirmed to inhibit
[2]
  Hedgehog signaling: completely blocked
  tumors dependent on Hedgehog signaling: caused regression

Reference: patent US8338482B2, “Modulating notch1 signaling pathway for treating neuroendocrine tumors” (Wisconsin Alumni Research Foundation, priority 2007, dated 2012)
